Broadly, the GI50 is the concentration at which growth is held to half of that of the control. As usually defined, the DC50 is the midpoint of the concentration-degradation curve. Low readings indicate a more potent degrader, high ones a less potent degrader.

From patent US20250002473A1, “QUINOXALINE DERIVED SULFONAMIDES WITH EGFR DEGRADATION ACTIVITIES AND THEIR USES THEREOF” (Accutar Biotechnology Inc., priority 2023, published 2025) come the findings set out here.

Read-outs that look alike come from different tables or passages of the source. Some results are limits rather than exact numbers.

Common to all, as to type: cell-based
The test system of experiment [1] is BaF3_SVD. Briefly: Cell growth inhibition assay (CellTiter-Glo), BaF3_SVD. Here is the method: (§1) Cells were seeded in a 96-well plate (Corning 3610) with 90 μL of culture medium per well, and plates were incubated at 37° C. overnight. A 1,000× DMSO stock solution of the desired compound was prepared the following day. A compound dilution plate was prepared by diluting the stock solution 1:100 in the corresponding cell culture medium, 10 μL of the diluted compound solution was added to each 96-well plate well containing the seeded cells. Then, the cells were cultured at 37° C. for three days following compound treatment, 100 μL of CellTiter-Glo reagents (Promega G7573) was added to each well of the 96-well plate. The content of the wells was mixed by shaking continuously for 10 min, and luminescence was measured using Envision (PerkinElmer). The data were analyzed with GraphPad Prism 9 (see FIG. 50).
(§2) Table 6, Table 7, and Table 8 list the cell growth inhibition results, where Gls0 represents the compound concentration to cause 50% cell growth inhibition in comparison with DMSO.
A general note: ATP-based viability assays read luminescence as a measure of living cells.

Experiment [2] addresses T1, BaF3_SVD (EGFR_D770insSVD) (Homo sapiens, UniProt P00533, INS770SVD).
T1 construct: expressed in transfected cells; host or cells: Ba/F3 (engineered)
Briefly: EGFR degradation assay (western blot), BaF3_SVD cells. The protocol: A431 (EGFR_WT), NCl-H2073 (EGFR_WT), NCl-H292 (EGFR_WT), BaF3_YVAM (Her2_A775insYVAM), BaF3_SVD (EGFR_D770insSVD), BaF3_ASV (EGFR_A776inASV), or BaF3_DTC (EGFR_Exon19del/T790M/C797S) cells were seeded in a 24-well plate at a density of 4×10^5 cells per well for EGFR WT cells and 8× cells per well for EGFR or Her2 mutant cells, and the plates were incubated overnight. The cells were treated with the desired compounds for 24 h. The culture medium was removed, and 100 μL of RIPA buffer (Beyotime, P0013B) containing 1% Protease Inhibitor Cocktail (Bimake, B14001), 1% Phosphatase Inhibitor Cocktail 2 (Sigma, P5726), and 1% Phosphatase Inhibitor Cocktail 3 (Sigma, P0044) were added to lyse the cells. Then, the cell lysates were transferred to 1.5 mL microcentrifuge tubes and centrifuged at 12,000 rpm and 4° C. for 30 min. The supernatants were transferred into new tubes, and the protein concentration was determined using the BCA protein quantification method. All samples were diluted to the same concentration using RIPA buffer, loading buffer was added, samples were denatured, and 15 μg of protein per lane was loaded onto a SurePAGE 4-20% Bis-Tris gel. Samples were separated via electrophoresis in MOPS running buffer at 180 V for 100 min. Then, proteins were transferred onto PVDF membranes using the MiniBlot™ Electrophoretic Transfer Cell Device (Beyotime, E6050). The membrane was blocked using block buffer (LI-COR 927-60001) to prevent non-specific binding. The membrane was incubated with primary antibodies (1:500 dilution, EGFR-CST4405, 1:2000 dilution, Tubulin-ABclonal #AC021) at 4° C. overnight. The membrane was washed three times with 1× TBST buffer for 15 min each. The membrane was incubated with secondary antibodies IRDye 680RD Goat anti-Rabbit IgG Secondary Antibody (1:2000 dilution, LI-COR 926-68071) and IRDye 800CW Goat anti-Mouse IgG Secondary Antibody (1:2000 dilution, LI-COR 926-32210). […] Fluorescence was detected using the Odyssey CLx Imaging System, and the data were analyzed with Empiria Studio Software and GraphPad Prism 9. […]

The subject of experiment [3] is BaF3_YVMA. The experiment in a line: Cell growth inhibition assay (CellTiter-Glo), BaF3_YVMA. Here is the method: as §1, with “Then, the cells were cultured at 37° C. for three days following compound treatment, 100 μL of CellTiter-Glo reagents (Promega G7573) was added to each well of the 96-well plate.” left out
as §2

Experiment [4] relates to A431. Briefly: Cell growth inhibition assay (CellTiter-Glo), A431. The note with it: Homo sapiens, A431 cells. In a few lines:
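This growth inhibition assay reports GI50, the compound concentration producing 50% inhibition of cell growth relative to DMSO. Seeded cells (90 μL medium per well, 96-well Corning 3610 plates, overnight at 37° C.) received 10 μL of compound diluted 1:100 from a 1,000× DMSO stock. Luminescence was measured on Envision (PerkinElmer) and analyzed in GraphPad Prism 9.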

The mark [5] stands for this setting: BaF3_SVD, comparison with Compound A, in words.

T1 sequence (P00533 with tags, fused parts or gaps INS770SVD): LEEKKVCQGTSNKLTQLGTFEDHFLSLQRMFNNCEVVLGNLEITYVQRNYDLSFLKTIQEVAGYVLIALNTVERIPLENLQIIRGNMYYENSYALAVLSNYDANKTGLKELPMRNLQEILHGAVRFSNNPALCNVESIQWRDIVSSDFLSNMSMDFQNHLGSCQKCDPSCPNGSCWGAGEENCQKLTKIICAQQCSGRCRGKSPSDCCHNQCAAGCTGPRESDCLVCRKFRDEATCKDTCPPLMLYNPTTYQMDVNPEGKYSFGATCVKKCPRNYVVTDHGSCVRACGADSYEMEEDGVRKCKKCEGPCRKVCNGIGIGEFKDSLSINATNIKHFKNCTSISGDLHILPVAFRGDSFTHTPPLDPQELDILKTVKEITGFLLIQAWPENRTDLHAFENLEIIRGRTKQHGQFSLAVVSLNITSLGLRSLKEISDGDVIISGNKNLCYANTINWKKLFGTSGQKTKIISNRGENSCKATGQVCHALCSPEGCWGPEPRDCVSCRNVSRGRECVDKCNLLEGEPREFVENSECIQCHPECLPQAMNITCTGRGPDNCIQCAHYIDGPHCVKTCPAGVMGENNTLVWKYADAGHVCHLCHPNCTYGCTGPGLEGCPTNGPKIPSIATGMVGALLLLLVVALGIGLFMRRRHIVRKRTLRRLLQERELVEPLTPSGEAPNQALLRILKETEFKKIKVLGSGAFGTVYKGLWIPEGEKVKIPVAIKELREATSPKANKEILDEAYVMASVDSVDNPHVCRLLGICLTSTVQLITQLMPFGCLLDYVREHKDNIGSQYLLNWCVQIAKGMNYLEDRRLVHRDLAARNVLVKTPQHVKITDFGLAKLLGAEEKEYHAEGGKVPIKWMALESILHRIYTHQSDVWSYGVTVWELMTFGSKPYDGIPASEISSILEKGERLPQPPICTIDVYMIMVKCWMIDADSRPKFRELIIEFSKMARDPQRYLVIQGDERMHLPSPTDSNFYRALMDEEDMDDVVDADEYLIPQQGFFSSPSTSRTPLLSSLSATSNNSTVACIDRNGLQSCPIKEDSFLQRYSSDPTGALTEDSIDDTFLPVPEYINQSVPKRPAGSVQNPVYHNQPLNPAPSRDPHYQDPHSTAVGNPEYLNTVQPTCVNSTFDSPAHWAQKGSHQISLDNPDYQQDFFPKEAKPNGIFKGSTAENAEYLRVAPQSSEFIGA

`CCc1cc(Nc2ncc(Br)c(Nc3ccc4nccnc4c3NS(C)(=O)=O)n2)c(OC)cc1N1CCC(N2CCN(CCc3cccc4c3n(CC)c(=O)n4C3CCC(=O)NC3=O)CC2)CC1` (centres unmarked) [Compound 11, N-(6-((5-bromo-2-((4-(4-(4-(2-(1-(2,6-dioxopiperidin-3-yl)-3-ethyl-2-oxo-2,3-dihydro-1H-benzo[d]imidazol-4-yl)ethyl)piperazin-1-yl)piperidin-1-yl)-5-ethyl-2-methoxyphenyl)amino)pyrimidin-4-yl)amino)quinoxalin-5-yl)methanesulfonamide]: the “Potency in cell growth inhibition compared with Compound A (BaF3_SVD)” value in experiment [1] (setting [5]) is “significantly increased potency”. For the same molecule, the GI50 in experiment [1] (Table 7, BaF3_SVD cells) is 106 nM; in experiment [3] (Table 7, BaF3_YVMA cells, head prints 24 h) it was 188 nM; in experiment [4] (A-431, 24 h, Table 7, head prints 24 h, read-out: GI50 (nM), 24 h, A431), 2500 nM; in experiment [4] (A-431, 72 h, Table 6, three days, CellTiter-Glo, read-out: A431 GI50) it was greater than 1000 nM. Moreover, the “Potency in degrading EGFR exon20 insertion mutant form compared with Compound A (BaF3_SVD)” value in experiment [2] (setting [5]) is “significantly increased potency”. Half-maximal degradation in experiment [2] (Table 5, BaF3_SVD cells, 24 h) (DC50) was put at 21.6 nM. In addition, the “Potency in cell growth inhibition compared with Compound A (BaF3_YVMA)” value in experiment [3] (BaF3_YVMA, comparison with Compound A, in words) is recorded as “significantly increased potency”.
